One may read the EC50 as the concentration at which the effect is half-maximal. One may read the Cmax as the maximum level reached in the sampled fluid or tissue. In general, CC50 refers to the concentration that lowers cell viability or growth by half. Read a high CC50 as lower toxicity to the cells.

Like-named read-outs stand apart in the source and are kept apart here.

The test system of data set [1] is A/Hong Kong/4801/2014 (H3N2). Kind of data set: microbe, parasite or virus in culture. The data set is classed as cell-based, Influenza A.
The subject of data set [2] is A/Michigan/45/2015 (H1N1). Kind of data set: microbe, parasite or virus in culture. The class given is cell-based, Influenza A.
In data set [3] the test system is A/PR/8/1934 (H1N1) (wild-type). Kind of data set: microbe, parasite or virus in culture. The settings on record: Influenza A virus. The class given is cell-based.
For data set [4] the following is noted: in vivo, cited from earlier work.
For data set [5], the system named is A/California/04/2009 (H1N1). As to the kind of experiment: microbe, parasite or virus in culture. The data set is classed as cell-based. The settings on record: Influenza A virus.
[6] abbreviates: read-out: EC50 (μM) - Replicate 1.
[7] abbreviates: read-out: EC50 (μM) - Replicate 2.

For `CCC(CC)[C@H](NC(C)=O)[C@@H]1[C@H](O)[C@@H](C(=O)O)C[C@H]1N=C(N)N.O.O.O` [Peramivir (PER), Peramivir trihydrate], the concentration giving a half-maximal response (EC50) result is “the most potent NAI” in data set [1], 57 nM in data set [1] (read-out: EC50), 0.01 µM in data set [2] (setting [6]) and under 0.006 µM in data set [2] (setting [7]).

Regarding `CC(=O)N[C@H]1[C@H]([C@H](O)[C@H](O)CO)OC(C(=O)O)=C[C@@H]1N=C(N)N` [Zanamivir (ZAN), Zanamivir], the EC50 in data set [1] (Influenza A virus, H3N2, 40 h) amounted to 2600 nM; in data set [2] (Influenza A virus, H1N1, MDCK, read-out: EC50 (μM) - Replicate 1), 0.06 µM; in data set [2] (Influenza A virus, H1N1, MDCK, read-out: EC50 (μM) - Replicate 2) it was 0.034 µM.

Take `O=C1c2c(O)c(=O)ccn2N([C@@H]2c3ccccc3SCc3c2ccc(F)c3F)[C@@H]2COCCN12` [baloxavir, Baloxavir]: the EC50 in data set [1] (Influenza A virus, H3N2) was 0.8 nM; in data set [3] it was about 1 nM; in data set [5], 1 nM. Also, the results for the Cmax in data set [4] (40 mg) and in data set [4] (80 mg) were 96.4 ng/mL and 107 ng/mL, respectively.

Take Oseltamivir acid [Oseltamivir (OSE)]: the EC50 in data set [1] (read-out: EC50) came to 760 nM; in data set [2] (setting [6]), 0.18 µM; in data set [2] (setting [7]), 0.024 µM. The CC50 in the data set with MDCK cells is over 50 µg/mL.
